Source: ChEMBL document CHEMBL1130954, “Design and synthesis of analogs of vitamin E: antiproliferative activity against human breast adenocarcinoma cells” (Bioorg Med Chem Lett, 1998)

Test system: MCF7
Test: Compound was tested for antiproliferative activity against human breast cancer cell line MCF-7 in MTT assay
Assay type: functional, cell-based

| Structure (SMILES) | IC50 [µM] |
| --- | --- |
| CC(=O)Oc1c(C)c(C)c2c(c1C)CC[C@@](C)(CCC[C@H](C)CCC[C@H](C)CCCC(C)C)O2 | > 500 |
| Cc1c(C)c2c(c(C)c1OC(=O)[C@@H](N)CCCCN)CC[C@@](C)(CCC[C@H](C)CCC[C@H](C)CCCC(C)C)O2 | 12 |
| CCCCCOCC1(C)CCc2c(C)c(OC(=O)[C@@H](N)CCCCN)c(C)c(C)c2O1 (some centres undefined) | 22 |
| Cc1c(C)c2c(c(C)c1OC(=O)[C@@H](N)CCCCN)CCC(C)(COC(=O)CCC(C)[C@H]1CC[C@H]3[C@@H]4[C@H](O)C[C@@H]5C[C@H](O)CC[C@]5(C)[C@H]4C[C@H](O)[C@]13C)O2 (some centres undefined) | 4 |
| Cc1c(C)c2c(c(C)c1OC(=O)CCC(=O)O)CC[C@@](C)(CCC[C@H](C)CCC[C@H](C)CCCC(C)C)O2 [(+)-ALPHA-TOCOPHERYL SUCCINATE] | > 368 |

Next, values leading:

| IC50 [µM] | Structure (SMILES) |
| --- | --- |
| 15 | CCCCC(=O)OCC1(C)CCc2c(C)c(OC(=O)[C@@H](N)CCCCN)c(C)c(C)c2O1 (some centres undefined) |
| 194 | Cc1c(C)c2c(c(C)c1OC(=O)[C@@H](N)CCCCN)CCC(C)(CO)O2 (some centres undefined) |
| 329 | Cc1c(C)c2c(c(C)c1O)CC[C@@](C)(CCC[C@H](C)CCC[C@H](C)CCCC(C)C)O2 [ALPHA-TOCOPHEROL] |
| 1460 | Cc1c(C)c2c(c(C)c1O)CCC(C)(C(=O)O)O2 (centres undefined) [TROLOX] |
